According to patent publication US20220016102A1, “ER PROTEIN REGULATORS AND USE THEREOF” (ShanghaiTech University, priority 2018, published 2022):

Key:
Type in all cases: cell-based
MCF-7 cell line = experiment: Assay for determination of inhibition of MCF-7 cell proliferation (CCK-8); conditions: Homo sapiens, MCF7, 96 h; MCF-7 cells, 4 days, CCK-8, FIG. 3
Procedure: MCF-7 were cultured in ncubator with 5% CO2 at 37° C. Complete medium was EMEM supplemented with 10% FBS, 100 U/mL Penicillin and Streptomycin, and 0.77 μg/mL recombinant human insulin.
10 μL CCK-8 reagent was added to the test well without adding the drugs, and after 4 h the O.D.value of the test well was recorded as the initial cell level. • After 4 days, 10 μL CCK-8 reagent was added, and the O.D.values was measured, and inhibition level was calculated.

ER protein [1] = target: T1, ER protein (Homo sapiens, UniProt P03372); experiment: Western blotting analysis of ER protein degradation in T47D cell line; parameters: western blotting detection of the level of intracellular ER protein; endogenous in cells; host or cells: T47D; conditions: degradation of ER protein, T47D cells, drug treatment for 16 hours, Western blot gray values vs DMSO control; read-out: DC50 (nM)/T47Dcell line
T1 sequence (P03372 1-595): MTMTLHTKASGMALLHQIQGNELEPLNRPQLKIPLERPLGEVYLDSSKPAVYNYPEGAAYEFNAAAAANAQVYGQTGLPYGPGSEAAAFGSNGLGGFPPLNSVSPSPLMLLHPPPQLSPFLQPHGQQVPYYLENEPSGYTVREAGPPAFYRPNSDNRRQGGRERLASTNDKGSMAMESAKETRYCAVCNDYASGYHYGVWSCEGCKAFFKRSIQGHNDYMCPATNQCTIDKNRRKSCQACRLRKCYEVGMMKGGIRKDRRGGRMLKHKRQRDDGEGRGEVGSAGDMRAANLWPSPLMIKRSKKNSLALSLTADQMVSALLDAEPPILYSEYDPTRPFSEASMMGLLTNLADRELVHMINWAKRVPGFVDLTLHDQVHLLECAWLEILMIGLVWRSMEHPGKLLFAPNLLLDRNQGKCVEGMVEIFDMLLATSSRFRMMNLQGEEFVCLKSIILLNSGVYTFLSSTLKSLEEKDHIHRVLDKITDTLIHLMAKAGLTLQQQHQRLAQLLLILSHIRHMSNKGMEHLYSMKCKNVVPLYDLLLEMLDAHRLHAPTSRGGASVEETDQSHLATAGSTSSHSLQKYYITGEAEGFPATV
Summary of the method: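 T47D cells seeded at 1.5×10^5 cells/mL, adhered 24 h, then treated with compound; ER protein level read by Western blot band gray value versus DMSO control. DC50 taken as concentration giving half the control gray value, read from bands or from a fitted concentration–gray value curve.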

ER protein [2] = target: T1, ER protein; experiment: Western blotting analysis of ER protein degradation in MCF-7 cell line; parameters: western blotting detection of the level of intracellular ER protein; endogenous in cells; conditions: MCF-7 cells, Western blot gray values vs DMSO control
Procedure: MCF-7 were cultured in ncubator with 5% CO2 at 37° C. Complete medium was EMEM supplemented with 10% FBS, 100 U/mL Penicillin and Streptomycin, and 0.77 μg/mL recombinant human insulin. […]
DC50 value (the drug concentration required for degrading proteins by 50%, abbreviated as DC50) reads method: comparing the gray values of the Western blotting bands for the drug treatment with the gray values of the Western blotting band for the DMSO control, and reading the drug concentration range corresponding to the gray value of the Western blotting bands for the drug treatment which is equal to half of the gray value of the Western blotting band for the DMSO control.
DC50 value could also be calculated as follows: using software ImageJ to quantify the gray values of the Western blotting bands for the drug treatment, fitting the relationship curve between drug concentrations and gray values, and from the fitted curve, calculating the drug concentration corresponding to half of the gray value of the Western blotting band for the DMSO control.

Row | IC50 (MCF-7 cell line) [nM] | DC50 (ER protein [1]) [nM] | DC50 (ER protein [2]) [nM] | Structure (SMILES)
1 | 3.6 | < 10 | – | CCC(=C(c1ccc(O)cc1)c1ccc(OCCNC(=O)CCOCCOCCC(=O)N[C@H](C(=O)N2C[C@H](O)C[C@H]2C(=O)NCc2ccc(-c3scnc3C)cc2)C(C)(C)C)cc1)c1ccc(O)cc1 [SIAIS208173, (2S,4R)-1-((S)-16-(4-(1,2-bis(4-hydroxyphenyl)but-1-en-1-yl)phenoxy)-2-(tert-butyl)-4,13-dioxo-7,10-dioxa-3,14-diazahexadecanoyl)-4-hydroxy-N-(4-(4-methylthiazol-5-yl)benzyl)pyrrolidine-2-carboxamide]
2 | – | < 50 | < 100 | Cc1ncsc1-c1ccc(CNC(=O)[C@@H]2C[C@@H](O)CN2C(=O)[C@@H](NC(=O)CCOCCOCCC(=O)NCCOc2ccc(C(=C(CCCl)c3ccccc3)c3ccc(O)cc3)cc2)C(C)(C)C)cc1 [SIAIS208017, (2S,4R)-1-((S)-2-(tert-butyl)-16-(4-(4-chloro-1-(4-hydroxyphenyl)-2-phenylbut-1-en-1-yl)phenoxy)-4,13-dioxo-7,10-dioxa-3,14-diazahexadecanoyl)-4-hydroxy-N-(4-(4-methylthiazol-5-yl)benzyl)pyrrolidine-2-carboxamide]
3 | – | < 50 | < 100 | Cc1ncsc1-c1ccc(CNC(=O)[C@@H]2C[C@@H](O)CN2C(=O)[C@@H](NC(=O)CCCCC(=O)NCCOc2ccc(C(=C(CCCl)c3ccccc3)c3ccc(O)cc3)cc2)C(C)(C)C)cc1 [SIAIS208032, N1-(2-(4-(4-chloro-1-(4-hydroxyphenyl)-2-phenylbut-1-en-1-yl)phenoxy)ethyl)-N6-((S)-1-((2S,4R)-4-hydroxy-2-((4-(4-methylthiazol-5-yl)benzyl)carbamoyl)pyrrolidin-1-yl)-3,3-dimethyl-1-oxobutan-2-yl)adipamide]
4 | 0.75 | < 10 | < 10 | Cc1ncsc1-c1ccc(CNC(=O)[C@@H]2C[C@@H](O)CN2C(=O)[C@@H](NC(=O)CCCCCCCC(=O)NCCOc2ccc(C(=C(CCCl)c3ccccc3)c3ccc(O)cc3)cc2)C(C)(C)C)cc1 [SIAIS208035, N1-(2-(4-(4-chloro-1-(4-hydroxyphenyl)-2-phenylbut-1-en-1-yl)phenoxy)ethyl)-N9-((S)-1-((2S,4R)-4-hydroxy-2-((4-(4-methylthiazol-5-yl)benzyl)carbamoyl)pyrrolidin-1-yl)-3,3-dimethyl-1-oxobutan-2-yl)nonanediamide]
5 | 0.75 | < 1 | – | CCC(=C(c1ccc(O)cc1)c1ccc(OCCNC(=O)CCCCCCCCC(=O)N[C@H](C(=O)N2C[C@H](O)C[C@H]2C(=O)NCc2ccc(-c3scnc3C)cc2)C(C)(C)C)cc1)c1ccc(O)cc1 [SIAIS208168, N1-(2-(4-(1,2-bis(4-hydroxyphenyl)but-1-en-1-yl)phenoxy)ethyl)-N10-((S)-1-((2S,4R)-4-hydroxy-2-((4-(4-methylthiazol-5-yl)benzyl)carbamoyl)pyrrolidin-1-yl)-3,3-dimethyl-1-oxobutan-2-yl)decanediamide]
6 | – | < 100 | < 100 | Cc1ncsc1-c1ccc(CNC(=O)[C@@H]2C[C@@H](O)CN2C(=O)[C@@H](NC(=O)CCCC(=O)NCCOc2ccc(C(=C(CCCl)c3ccccc3)c3ccc(O)cc3)cc2)C(C)(C)C)cc1 [SIAIS208031, N1-(2-(4-(4-chloro-1-(4-hydroxyphenyl)-2-phenylbut-1-en-1-yl)phenoxy)ethyl)-N5-((S)-1-((2S,4R)-4-hydroxy-2-((4-(4-methylthiazol-5-yl)benzyl)carbamoyl)pyrrolidin-1-yl)-3,3-dimethyl-1-oxobutan-2-yl)glutaramide]
7 | 869 | – | – | CN(C)CCOc1ccc(/C(=C(/CCCl)c2ccccc2)c2ccccc2)cc1 [Toremifene, reference compound]
8 | – | < 50 | < 50 | Cc1ncsc1-c1ccc(CNC(=O)[C@@H]2C[C@@H](O)CN2C(=O)[C@@H](NC(=O)CCOCCOCCOCCC(=O)NCCOc2ccc(C(=C(CCCl)c3ccccc3)c3ccc(O)cc3)cc2)C(C)(C)C)cc1 [SIAIS208018, (2S,4R)-1-((S)-2-(tert-butyl)-19-(4-(4-chloro-1-(4-hydroxyphenyl)-2-phenylbut-1-en-1-yl)phenoxy)-4,16-dioxo-7,10,13-trioxa-3,17-diazanonadecanoyl)-4-hydroxy-N-(4-(4-methylthiazol-5-yl)benzyl)pyrrolidine-2-carboxamide]
9 | 4.2 | < 10 | – | Cc1ncsc1-c1ccc(CNC(=O)[C@@H]2C[C@@H](O)CN2C(=O)[C@@H](NC(=O)CCCCCCC(=O)N2CCN(CCOc3ccc(C(=C(CCCl)c4ccccc4)c4ccc(O)cc4)cc3)CC2)C(C)(C)C)cc1 [SIAIS251045, (2S,4R)-1-((S)-2-(8-(4-(2-(4-(4-chloro-1-(4-hydroxyphenyl)-2-phenylbut-1-en-1-yl)phenoxy)ethyl)piperazin-1-yl)-8-oxooctanamido)-3,3-dimethylbutanoyl)-4-hydroxy-N-(4-(4-methylthiazol-5-yl)benzyl)pyrrolidine-2-carboxamide]
10 | – | < 10 | < 50 | Cc1ncsc1-c1ccc(CNC(=O)[C@@H]2C[C@@H](O)CN2C(=O)[C@@H](NC(=O)CCOCCOCCOCCOCCC(=O)NCCOc2ccc(C(=C(CCCl)c3ccccc3)c3ccc(O)cc3)cc2)C(C)(C)C)cc1 [SIAIS208019, N1-(2-(4-(4-chloro-1-(4-hydroxyphenyl)-2-phenylbut-1-en-1-yl)phenoxy)ethyl)-N16-((S)-1-((2S,4R)-4-hydroxy-2-((4-(4-methylthiazol-5-yl)benzyl)carbamoyl)pyrrolidin-1-yl)-3,3-dimethyl-1-oxobutan-2-yl)-4,7,10,13-tetraoxahexadecanediamide]
11 | – | < 10 | < 50 | Cc1ncsc1-c1ccc(CNC(=O)[C@@H]2C[C@@H](O)CN2C(=O)[C@@H](NC(=O)CCC(=O)NCCOc2ccc(C(=C(CCCl)c3ccccc3)c3ccc(O)cc3)cc2)C(C)(C)C)cc1 [SIAIS208020, N1-(2-(4-(4-chloro-1-(4-hydroxyphenyl)-2-phenylbut-1-en-1-yl)phenoxy)ethyl)-N4-((S)-1-((2S,4R)-4-hydroxy-2-((4-(4-methylthiazol-5-yl)benzyl)carbamoyl)pyrrolidin-1-yl)-3,3-dimethyl-1-oxobutan-2-yl)succinamide]
